Experiments:
[1] = target: T1, aldose reductase from calves lenses (Bos taurus, UniProt P16116); experiment: inhibiting activity of aldose reductase from calves lenses; assay type: biochemical; conditions: read-out: IC50 values (concentrations which bring about 50% enzyme inhibition)
T1 construct: aldose reductase from calves lenses; from tissue; host or cells: calf lens

[2] = system: streptozotocin-treated, diabetic rats; experiment: sorbitol concentration in eye lens and sciatic nerve of streptozotocin-treated, diabetic rats; assay type: in vivo; conditions: 3 times 20 mg/kg p.o. (4, 8 and 24 hours after streptozotocin), 3 hours after last dosage
Protocol: (§1) Furthermore, the compound of formula I in which R^1 is fluorine and R^2 is hydrogen was investigated for its activity on galactosaemic rats (30% galactose diet). More particularly, the dulcitol concentration in the eye lens was determined after 5 applications of 5 and of 20 mg/kg body weight per os over 2 days. Similarly, 20 mg/kg were administered intraperitoneally in an additional experiment. […] The same compound was also administered to streptozotocin-treated, diabetic rats (3 times 20 mg/kg p.o., 4, 8 and 24 hours after streptozotocin administration). Three (3) hours after the administration of the last dosage, the sorbitol concentration was determined in the eye lens and in the sciatic nerve.

[3] = system: galactosaemic rats; experiment: dulcitol concentration in the eye lens of galactosaemic rats (30% galactose diet); assay type: in vivo; conditions: compared to untreated galactosaemic animals
Protocol: as §1

Row | Structure (SMILES) | IC50 [1] | sorbitol concentration in the eye lens [2] | sorbitol concentration in the sciatic nerve [2] | dulcitol concentration in the eye lens ([3]; 20 mg/kg administered intraperitoneally) | dulcitol concentration in the eye lens ([3]; 5 applications of 5 mg/kg body weight per os over 2 days) | dulcitol concentration in the eye lens ([3]; 5 applications of 20 mg/kg body weight per os over 2 days)
1 | O=C1NC(=O)C2(CCOc3ccc(F)cc32)S1 (racemic) [(±)-6-fluoro-2,3-dihydrospiro[4H-1-benzopyran-4,5'-thiazolidine]-2',4'-dione] | 100 nM | clear decrease | clear decrease | significant decrease | significant decrease | significant decrease
2 | O=C1NC(=O)C2(CCOc3c([N+](=O)[O-])cc(F)cc32)S1 (racemic) [(±)-6-fluoro-8-nitro-2,3-dihydrospiro[4H-1-benzopyran-4,5'-thiazolidine]-2',4'-dione] | 89 nM |  |  |  |  | 
3 | CC(=O)Nc1cc(F)cc2c1OCCC21SC(=O)NC1=O (racemic) [(±)-6-fluoro-8-acetamido-2,3-dihydrospiro[4H-1-benzopyran-4,5'-thiazolidine]-2',4'-dione] | 8 nM |  |  |  |  | 

From US4587256A, “Novel thiazolidine derivatives” (Hoffmann-La Roche Inc., priority 1983, dated 1986)
